Reference: the NIST ThermoML archive (doi:10.1021/je300673m)

Assay: mn = molality of the nth substance listed, in mol/kg
Conditions: 101 kPa, Liquid

O=P([O-])([O-])O.[K+].[K+] [dipotassium hydrogen phosphate] + O
viscosity [mPa·s]
Conditions | 288.15 K | 298.15 K | 308.15 K | 318.15 K
m1 = 0.2 | 1.201 | 0.953 | 0.781 | 0.659
m1 = 0.4 | 1.329 | 1.057 | 0.867 | 0.73
m1 = 0.6 | 1.409 | 1.118 | 0.916 | 0.77
m1 = 0.8 | 1.534 | 1.217 | 0.997 | 0.833
